The values below come from PMC11063903, “Engineering a human P2X2 receptor with altered ligand selectivity in yeast” (The Journal of Biological Chemistry, 2024).

One assay has as its target T1, P2X2 F303Y (Homo sapiens, UniProt Q9UBL9, F303Y).
T1 construct: expressed in transfected cells; host or cells: S. cerevisiae BY4741 background
T1 sequence (Q9UBL9 1-471 F303Y): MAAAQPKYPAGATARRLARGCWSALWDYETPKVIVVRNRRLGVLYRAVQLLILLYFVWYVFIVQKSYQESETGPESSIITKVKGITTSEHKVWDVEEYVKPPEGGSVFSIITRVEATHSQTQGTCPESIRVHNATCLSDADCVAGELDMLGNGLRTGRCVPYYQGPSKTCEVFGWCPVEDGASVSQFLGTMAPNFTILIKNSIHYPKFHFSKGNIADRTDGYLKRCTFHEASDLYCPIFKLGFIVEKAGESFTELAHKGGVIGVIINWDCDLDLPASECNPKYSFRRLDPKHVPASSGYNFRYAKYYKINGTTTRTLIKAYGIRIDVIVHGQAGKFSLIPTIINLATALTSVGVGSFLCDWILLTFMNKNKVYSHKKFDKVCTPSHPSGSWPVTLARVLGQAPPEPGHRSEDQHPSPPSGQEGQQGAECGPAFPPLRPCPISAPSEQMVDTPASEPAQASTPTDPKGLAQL
Kind of assay: Fast GCaMP-mScarletI assay in yeast, P2X2 F303Y. The class given is cell-based. The settings on record: for Bottom, best fit value / Hillslope, best fit value / Top, best fit value: four-parameter logistic fit of ΔF/ΔT; for Bottom, best fit value / Hillslope, best fit value / Top, best fit value / EC50: n = 3; for EC50: four-parameter logistic fit, unit inferred, unit M, read-out: EC50, best fit value. How it is done:
(§1) Figure 4 Unnatural-ligand gating in LBD libraries.A, WT P2X2 was tested with 1 mM ATP, 500 μM AMP-PNP, and compared to ATP with the broken receptor (K81C K83C) control with 1 mM ATP in the fast GCaMP-mScarletI assay (n = 3). […] B, heat map summarizing AMP-PNP signaling (ΔF/ΔT, fast GCaMP-mScarletI assay) in the site-saturation libraries (n = 2–3). All values are normalized to WT P2X2 with saturating amounts of AMP-PNP (500 μM) and therefore represent low signal (ΔF/ΔT) compared to the ATP ligand. C, F301W, F303Y, and A304W were combinatorially combined and tested against the WT, K81C K83C broken P2X2, and the single mutant clones with both ATP (1 mM, black) and AMP-PNP (500 μM, pink). […] Values here represent signal onset and are not normalized to a positive control (n = 2–5). D–K, dose response of each P2X variant with both ATP (black) and AMP-PNP (pink) in the fast GCaMP-mScarletI assay (n = 3). Statistics were performed via one-way ANOVA with Dunnett’s multiple comparisons with to the “broken” K81C K83C negative control. ∗ represents a p value ≤0.05, ∗∗ is p ≤ 0.01, and ∗∗∗ is p ≤ 0.001.
Given that the yeast-based screen seemed to recapitulate important structural and functional features of human ion channel function, we hypothesized that it might be possible to engineer new P2X2 functionalities in yeast, including new ligand specificity. […] We screened our 133-member library in the presence of 500 μM AMP-PNP (Fig. S7). While the AMP-PNP signal was uniformly low, three substitutions (F301W, F303Y, and A304W) increased signaling 2.5 to 2.8 times relative to the negative control receptor (Figs. 4B, and S7, D, F, and G). To gain a more complete view of the properties of these mutants, dose–response curves were generated with ATP and AMP-PNP (Fig. 4, D–G, and Table S2).
(§2) GCaMP assays were performed as follows. P2X2 GCaMP strains were designed with a bi-cistronic reporter, in which the GCaMP protein was followed by a 2A peptide and a mScarletI reporter ([53]). The co-translated mScarletI was designed to act as a control for plasmid loss, GCaMP breakage via nonsense mutation, and contamination. […] P2X2-GCaMP strains were cultured and induced as previously described. Samples were induced for 24 h to allow for the accumulation of the mature GCaMP protein. Cells were washed three times in 0.1 M MES/Tris buffer and resuspended with MES/Tris with supplemental calcium. Cells were loaded onto a black, clear bottom microplate and imaged on a FlexStation3 plate reader. Samples were imaged in “flex” mode. Samples were imaged for 48 s at an interval of 1.6 s. Fluorescence was measured with an excitation at 485 nm, and emission 525 nm. At the 21 s mark, 100 μl ligand solution was transferred to the cells. For strains with mScarlet, fluorescence was read with excitation 570 nm/emission 610 nm. Slopes were calculated from the last 6 points of measurement and were normalized to the positive control samples. Any replicate in which the mScarlet value was measured to be over 2 standard deviations less than the mean for that set was discarded from further analysis.
(§3) For multiple comparisons in the site-saturation screening data, One-way ANOVA with Dunnett’s multiple comparisons test was performed where every sample was compared to the “broken” negative control. Significance was plotted where ∗ represents a p value ≤0.05, ∗∗ is p ≤0.01, and ∗∗∗ is p ≤0.001. Dose–response curves were fit with nonlinear regression software using a four-parameter logistic curve. All statistics were calculated and plotted in Graphpad Prism software.

The target in another assay is T2, P2X2 F301W+F303Y (Homo sapiens, UniProt Q9UBL9, F301W/F303Y).
T2 construct: expressed in transfected cells; host or cells: S. cerevisiae BY4741 background
T2 sequence (Q9UBL9 1-471 F301W/F303Y): T1 sequence (Q9UBL9 1-471 F303Y) with F301W
In words: Fast GCaMP-mScarletI assay in yeast, P2X2 F301W+F303Y. The settings on record: n = 3; for Bottom, best fit value / Hillslope, best fit value / Top, best fit value: four-parameter logistic fit of ΔF/ΔT; for EC50: four-parameter logistic fit, unit inferred, unit M, read-out: EC50, best fit value. The class given is cell-based. The protocol:
as §1
The combined mutations were synergistic, with F303Y + A304W having a predicted additive effect of ca. Ten-fold, relative to the 73-fold seen.
as §2, §3

Positions count from the first letter of the chain named.

As for `Nc1ncnc2c1ncn2[C@@H]1O[C@H](COP(=O)(O)OP(=O)(O)NP(=O)(O)O)[C@@H](O)[C@H]1O` [AMP-PNP], at P2X2 F303Y (AMP-PNP dose-response, Fig. 4D-G, Table S2), the “activity compared to the wild-type” value is recorded as 1.89 fold. Besides, on P2X2 F303Y, the “Bottom, best fit value” is on record as 0.2603; the “Hillslope, best fit value” is listed as 0.8857; the “Top, best fit value” is listed as 2.141; the EC50 (in general, the concentration needed to bring the measured effect to its halfway point) is 328 µM. In addition, at P2X2 F301W+F303Y, the “Bottom, best fit value” is 0.3038; the “Hillslope, best fit value” amounted to 1.304; the “Top, best fit value” is 12.6; the EC50 was determined as 260 µM.

As to `Nc1ncnc2c1ncn2[C@@H]1O[C@H](COP(=O)(O)OP(=O)(O)OP(=O)(O)O)[C@@H](O)[C@H]1O` [ATP], at P2X2 F303Y, the “Bottom, best fit value” amounted to 0.80; the “Hillslope, best fit value” is on record as 2.18; the “Top, best fit value” came out at 68.07; the EC50 worked out at 3.6 µM. On P2X2 F301W+F303Y, the “Bottom, best fit value” is -0.11; the “Hillslope, best fit value” was 0.81; the “Top, best fit value” was found to be 46.60; the EC50 came to 3.01 µM.
